Results taken from patent US11597724B2, “Herbicidally active 3-phenylisoxazoline-5-carboxamides of tetrahydro and dihydrofuran carboxylic acids and esters” (Bayer Aktiengesellschaft, priority 2017, dated 2023).

Assays:
Type in all cases: in vivo
[1] = system: Amaranthus retroflexus; experiment: Pre-emergence herbicidal activity against AMARE; details: dosage 80 g/ha; for pest or weed control at 80 g/ha: Amaranthus retroflexus, 504 h
From the text: (§1) 1. Pre-Emergence Herbicidal Action and Crop Plant Compatibility Seeds of monocotyledonous and dicotyledonous weed plants and crop plants are placed in plastic or wood fiber pots and covered with soil. The compounds of the invention, formulated in the form of wettable powders (WP) or as emulsion concentrates (EC), are then applied onto the surface of the covering soil as aqueous suspension or emulsion with addition of 0.5% additive at a water application rate of 600 l/ha (converted). After the treatment, the pots are placed in a greenhouse and kept under good growth conditions for the trial plants. After about 3 weeks, the effect of the preparations is scored visually in comparison with untreated controls as percentages. For example, 100% activity=the plants have died, 0% activity=like control plants. AMARE: Amaranthus retroflexus AVEFA: Avena fatua

[2] = system: Pharbitis purpurea; experiment: Pre-emergence herbicidal activity against PHBPU; details: dosage 80 g/ha; for pest or weed control at 80 g/ha: Ipomoea purpurea, 504 h
From the text: as §1, with “LOLRI: Lolium rigidum PHBPU: Pharbitis purpurea” for “AMARE: Amaranthus retroflexus AVEFA: Avena fatua”

[3] = system: Viola tricolor; experiment: Pre-emergence herbicidal activity against VIOTR; details: dosage 80 g/ha
From the text: as §1, with “VIOTR: Viola tricolor” for “AMARE: Amaranthus retroflexus AVEFA: Avena fatua”

[4] = system: Pharbitis purpurea; experiment: Post-emergence herbicidal activity against PHBPU; details: dosage 320 g/ha, rated about 3 weeks after treatment; for pest or weed control at 320 g/ha: Ipomoea purpurea, 504 h
How it was run: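 Greenhouse-grown plants sprayed post-emergence at the one-leaf stage, 2 to 3 weeks after sowing, with WP or EC formulations plus 0.5% additive at 600 l/ha water. Activity rated visually after about 3 weeks versus untreated controls (100% = plants dead, 0% = like control).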

[5] = system: Stellaria media; experiment: Post-emergence herbicidal activity against STEME; details: dosage 320 g/ha, rated about 3 weeks after treatment; for pest or weed control at 320 g/ha: Stellaria media, 504 h
How it was run: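 Greenhouse plants treated at one-leaf stage, 2–3 weeks after sowing, by spraying WP or EC formulations with 0.5% additive at 600 l/ha water. Visual rating about 3 weeks later versus untreated controls (100% = plants dead, 0% = like controls).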

[6] = system: Viola tricolor; experiment: Post-emergence herbicidal activity against VIOTR; details: dosage 320 g/ha, rated about 3 weeks after treatment; for pest or weed control at 320 g/ha: Viola tricolor, 504 h
How it was run: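 Greenhouse plants in sandy loam treated at one-leaf stage, 2 to 3 weeks after sowing, by spraying WP or EC formulations with 0.5% additive at 600 l/ha water. Activity rated visually after about 3 weeks versus untreated controls, 100% = plants dead, 0% = like control.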

[7] = Pre-emergence treatment, summary over harmful plants; details: 504 h, application rate of 0.08 kg of active substance or less per hectare, read-out: herbicidal action, pre-emergence treatment (very good activity)
From the text: 1. Pre-Emergence Herbicidal Action and Crop Plant Compatibility
as §1, with “Seeds” for “1. Pre-Emergence Herbicidal Action and Crop Plant Compatibility Seeds”, “plants.” for “plants. AMARE: Amaranthus retroflexus AVEFA: Avena fatua”
As shown by the results, compounds according to the invention such as, for example, the compounds No. I-21 and other compounds from the tables (for example I-10, I-26, I-09, I-30, I-28, I-29, I-27, I-01, I-06, I-34, I-19, I-11, I-36, I-37, I-38, I-41, I-42, I-43, I-44, I-46, I-49) have, when used for pre-emergence treatment, very good activity (80% to 100% herbicidal action) against harmful plants such as Abutilon theophrasti, Alopecurus myosuroides, Amaranthus retroflexus, Avena fatua, Echinochloa crus-galli, Hordeum murinum, Lolium rigidum, Pharbitis purpurea, Polygonum convolvulus, Setaria viridis, Stellaria media, Veronica persica and Viola tricolor at an application rate of 0.08 kg of active substance or less per hectare.

Compound	Pre-emergence herbicidal activity against AMARE in % [1]	Pre-emergence herbicidal activity against PHBPU in % [2]	Pre-emergence herbicidal activity against VIOTR in % [3]	Post-emergence herbicidal activity against PHBPU in % [4]	Post-emergence herbicidal activity against STEME in % [5]	Post-emergence herbicidal activity against VIOTR in % [6]	pest or weed control at 80 g/ha [1]	pest or weed control at 80 g/ha [2]	pest or weed control at 320 g/ha [4]	pest or weed control at 320 g/ha [5]	pest or weed control at 320 g/ha [6]	pest or weed control at 80 g/ha [7]
CC(C)OC(=O)C1CC(NC(=O)C2(C)CC(c3cc(F)cc(F)c3)=NO2)CO1 (centres unmarked) [I-44]	90%	80%	80%	90%	90%	90%						
COC(=O)C1CC(NC(=O)C2(C)CC(c3cc(F)cc(F)c3)=NO2)CO1 (mixture of isomers) [I-48]	100%	90%	100%	80%	90%	80%						
C=C[C@]1(C(=O)N[C@H]2CO[C@@H](C(=O)OC)C2)CC(c2cc(F)cc(F)c2)=NO1 (single isomer, unassigned) [I-12]			100%	90%	90%	100%	100%					
COC(=O)C1COCC1NC(=O)[C@@]1(C)CC(c2cc(F)cc(F)c2)=NO1 (stereo partly drawn) [I-28, methyl 4-[[(5R)-3-(3,5-difluorophenyl)-5-methyl-4H-isoxazole-5-carbonyl]amino]tetrahydrofuran-3-carboxylate]							90%	90%	80%	80%	80%	80 to 100%
C=C[C@]1(C(=O)N[C@H]2CO[C@@H](C(=O)OC(C)(C)C)C2)CC(c2cc(F)cc(F)c2)=NO1 (mixture of isomers) [I-38, tert-butyl cis-4-[[(5S)-3-(3,5-difluorophenyl)-5-vinyl-4H-isoxazole-5-carbonyl]amino]tetrahydrofuran-2-carboxylate]			100%				100%		90%	90%	80%	80 to 100%
CCOC(=O)C1CC(NC(=O)C2(C)CC(c3cc(F)cc(F)c3)=NO2)CO1 (mixture of isomers) [I-43]	90%		90%	90%	100%	90%						
C=C[C@]1(C(=O)NC2COCC2C(=O)OC)CC(c2cc(F)cc(F)c2)=NO1 (stereo partly drawn) [I-26, methyl 4-[[(5S)-3-(3,5-difluorophenyl)-5-vinyl-4H-isoxazole-5-carbonyl]amino]tetrahydrofuran-3-carboxylate]							100%	90%	80%	90%	80%	80 to 100%
COC(=O)C1CC(NC(=O)C2(C(C)(F)F)CC(c3cc(F)cc(F)c3)=NO2)CO1 (centres unmarked) [I-49]	100%	90%	100%	80%	90%	80%						
COC(=O)C1COCC1NC(=O)C1(OC)CC(c2cc(F)cc(F)c2)=NO1 (centres unmarked) [I-27, methyl 4-[[3-(3,5-difluorophenyl)-5-methoxy-4H-isoxazole-5-carbonyl]amino]tetrahydrofuran-3-carboxylate]			90%				90%		80%	80%	80%	80 to 100%
C=CC1(C(=O)N[C@H]2CO[C@@H](C(=O)O)C2)CC(c2cc(F)cc(F)c2)=NO1 (relative stereo) [I-21, cis-4-[[3-(3,5-difluorophenyl)-5-vinyl-4H-isoxazole-5-carbonyl]amino]tetrahydrofuran-2-carboxylic acid]							100%	80%	80%	80%	80%	80 to 100%
CC(C)(C)OC(=O)C1CC(NC(=O)C2(C)CC(c3cc(F)cc(F)c3)=NO2)CO1 (mixture of isomers) [I-42]	100%	90%	100%	90%	90%	90%						
CC1(C(=O)NC2COC(C(=O)OCc3ccccc3)C2)CC(c2cc(F)cc(F)c2)=NO1 (mixture of isomers) [I-45]	100%	90%	100%	90%	90%	90%						
COC(=O)C1=C[C@@H](NC(=O)C2(C)CC(c3cccc(F)c3)=NO2)CO1 (stereo partly drawn) [I-46, methyl (3R)-3-[[3-(3-fluorophenyl)-5-methyl-4H-isoxazole-5-carbonyl]amino]-2,3-dihydrofuran-5-carboxylate]							90%		90%	90%	90%	80 to 100%
C=C[C@]1(C(=O)N[C@H]2CO[C@@H](C(=O)OCC)C2)CC(c2cc(F)cc(F)c2)=NO1 (mixture of isomers) [I-35, ethyl cis-4-[[(5S)-3-(3,5-difluorophenyl)-5-vinyl-4H-isoxazole-5-carbonyl]amino]tetrahydrofuran-2-carboxylate]			100%				100%	90%	90%	90%	80%	
CC1(C(=O)NC2COC(C(=O)O)C2)CC(c2cc(F)cc(F)c2)=NO1 (mixture of isomers) [I-41]	90%	90%		90%	90%	80%						
